Columns and labels:
[1] = biological target: T1, full-length beta-Catenin (Uniprot ID P35222) (Homo sapiens, UniProt P35222); assay: Fluorescence polarization IC50 (beta-catenin / 5FAM-TCF4 10-53 competition); type: binding; details: fluorescence polarization; read-out: beta-Catenin FP IC50
T1 construct: 10 nM full-length beta-Catenin (Uniprot ID P35222)
T1 sequence (P35222 1-781): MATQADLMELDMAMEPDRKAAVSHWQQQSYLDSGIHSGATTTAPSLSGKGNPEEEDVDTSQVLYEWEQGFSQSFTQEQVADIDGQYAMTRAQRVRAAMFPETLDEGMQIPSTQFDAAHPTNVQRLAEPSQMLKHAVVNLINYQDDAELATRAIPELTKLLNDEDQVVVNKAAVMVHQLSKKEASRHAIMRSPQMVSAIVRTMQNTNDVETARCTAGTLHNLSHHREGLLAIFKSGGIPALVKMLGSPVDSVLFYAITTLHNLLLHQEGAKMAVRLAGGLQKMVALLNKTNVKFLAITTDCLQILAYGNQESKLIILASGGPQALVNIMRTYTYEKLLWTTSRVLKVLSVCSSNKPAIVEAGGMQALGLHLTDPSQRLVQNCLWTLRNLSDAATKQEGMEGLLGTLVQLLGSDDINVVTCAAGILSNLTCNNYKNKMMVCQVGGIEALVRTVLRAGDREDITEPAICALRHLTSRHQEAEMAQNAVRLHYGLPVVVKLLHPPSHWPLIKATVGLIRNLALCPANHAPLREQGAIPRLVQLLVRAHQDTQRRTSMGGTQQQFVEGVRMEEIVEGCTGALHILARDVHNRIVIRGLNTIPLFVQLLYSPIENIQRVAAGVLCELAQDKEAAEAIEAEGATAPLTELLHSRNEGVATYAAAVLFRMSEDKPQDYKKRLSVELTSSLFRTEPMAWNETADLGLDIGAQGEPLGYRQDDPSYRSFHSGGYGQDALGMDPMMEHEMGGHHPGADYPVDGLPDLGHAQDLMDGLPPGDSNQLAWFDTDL

[2] = biological target: T2, beta-catenin/TCF4 engagement (Homo sapiens, UniProt P35222); assay: Nano-BRET target engagement assay (B-cat-Halo & TCF4-Luc in HEK293 cells); type: cell-based; details: absolute IC50; read-out: NanoBRET Abs IC50
T2 construct: expressed in transfected cells; host or cells: HEK293
T2 sequence (P35222 1-781): T1 sequence (P35222 1-781)

C[C@@H]1NC(=O)[C@H](C)NC(=O)[C@H](CC(=O)O)NC(=O)[C@H](CC(=O)O)NC(=O)C2(CCCC=CCCCOC(=O)N3CC[C@@](C(=O)N[C@@H](Cc4ccsc4)C(=O)N[C@@H](Cc4csc5ccccc45)C(=O)N[C@@H](CCC(N)=O)C(N)=O)(C3)NC(=O)[C@H](CC(N)=O)NC(=O)[C@H](Cc3ccccc3)NC1=O)CCCC=CC[C@]1(CCCN1S(C)(=O)=O)C(=O)N[C@@H](CC(=O)O)C(=O)N[C@@H](CC(C)(C)C)C(=O)N2 (stereo partly drawn) [I-1218, MeSO2-PL3-Asp-Npg-B5-Asp-Asp-Ala-Ala-Phe-Asn-PyrS2-3Thi-BztA-Gln-NH2]
IC50 [1]: 10 nM | IC50 [2]: > 20000 nM

C[C@@H]1NC(=O)[C@H](C)NC(=O)[C@H](CN(CC(=O)O)CC(F)(F)F)NC(=O)[C@H](CC(=O)O)NC(=O)C2(CCCC=CCCCOC(=O)N3CC[C@@](C(=O)N[C@@H](Cc4ccsc4)C(=O)N[C@@H](Cc4csc5ccccc45)C(=O)N[C@@H](CCC(N)=O)C(N)=O)(C3)NC(=O)[C@H](CC(N)=O)NC(=O)[C@H](Cc3ccccc3)NC1=O)CCCC=CC[C@]1(CCCN1S(C)(=O)=O)C(=O)N[C@@H](CC(=O)O)C(=O)N[C@@H](CC(C)(C)C)C(=O)N2 (stereo partly drawn) [I-1219, MeSO2-PL3-Asp-Npg-B5-Asp-TfeGA-Ala-Ala-Phe-Asn-PyrS2-3Thi-BztA-Gln-NH2]
IC50 [1]: 7 nM | IC50 [2]: > 20000 nM

CC(=O)N1CCC[C@]12CC=CCCCC1(CCCC=CCCCOC(=O)N3CC[C@@](C(=O)N[C@@H](Cc4ccsc4)C(=O)N[C@@H](Cc4csc5ccccc45)C(=O)N[C@@H](CCC(N)=O)C(N)=O)(C3)NC(=O)[C@H](CC(N)=O)NC(=O)[C@H](Cc3ccccc3)NC(=O)[C@H](C)NC(=O)[C@H](C)NC(=O)[C@H](CC(=O)O)NC(=O)[C@H](CC(=O)O)NC1=O)NC(=O)[C@H](CC(C)(C)C)NC(=O)[C@H](CC(N)=O)NC2=O (stereo partly drawn) [I-1220, Ac-PL3-Asn-Npg-B5-Asp-Asp-Ala-Ala-Phe-Asn-PyrS2-3Thi-BztA-Gln-NH2]
IC50 [1]: 11 nM | IC50 [2]: 17300 nM

CC(=O)N1CCC[C@]12CC=CCCCC1(CCCC=CCCCOC(=O)N3CC[C@@](C(=O)N[C@@H](Cc4ccsc4)C(=O)N[C@@H](Cc4csc5ccccc45)C(=O)N[C@@H](CCC(N)=O)C(N)=O)(C3)NC(=O)[C@H](CC(C)C)NC(=O)[C@H](Cc3ccccc3)NC(=O)[C@H](C)NC(=O)[C@H](C)NC(=O)[C@H](CC(=O)O)NC(=O)[C@H](CC(=O)O)NC1=O)NC(=O)[C@H](CC(C)(C)C)NC(=O)[C@H](CC(N)=O)NC2=O (stereo partly drawn) [I-1221, Ac-PL3-Asn-Npg-B5-Asp-Asp-Ala-Ala-Phe-Leu-PyrS2-3Thi-BztA-Gln-NH2]
IC50 [1]: 14 nM | IC50 [2]: 23400 nM

CC(=O)N1CCC[C@]12CC=CCCCC1(CCCC=CCCCOC(=O)N3CC[C@@](C(=O)N[C@@H](Cc4ccsc4)C(=O)N[C@@H](Cc4cccc5ccccc45)C(=O)N[C@@H](CCC(N)=O)C(N)=O)(C3)NC(=O)[C@H]([C@@H](C)O)NC(=O)[C@H](Cc3ccccc3)NC(=O)[C@H](C)NC(=O)[C@H](C)NC(=O)[C@H](CC(=O)O)NC(=O)[C@H](CC(=O)O)NC1=O)NC(=O)[C@H](CC(C)(C)C)NC(=O)[C@H](CC(=O)O)NC2=O (stereo partly drawn) [I-1232, Ac-PL3-Asp-Npg-B5-Asp-Asp-Ala-Ala-Phe-Thr-PyrS2-3Thi-1NapA-Gln-NH2]
IC50 [1]: 31 nM | IC50 [2]: 43300 nM

CC(=O)N1CCC[C@]12CC=CCCCC1(CCCC=CCCCOC(=O)N3CC[C@@](C(=O)N[C@@H](Cc4ccsc4)C(=O)N[C@@H](Cc4ccc5ccccc5c4)C(=O)N[C@@H](CCC(N)=O)C(N)=O)(C3)NC(=O)[C@H]([C@@H](C)O)NC(=O)[C@H](Cc3ccccc3)NC(=O)[C@H](C)NC(=O)[C@H](C)NC(=O)[C@H](CC(=O)O)NC(=O)[C@H](CC(=O)O)NC1=O)NC(=O)[C@H](CC(C)(C)C)NC(=O)[C@H](CC(=O)O)NC2=O (stereo partly drawn) [I-1233, Ac-PL3-Asp-Npg-B5-Asp-Asp-Ala-Ala-Phe-Thr-PyrS2-3Thi-2NapA-Gln-NH2]
IC50 [1]: 24 nM | IC50 [2]: 54500 nM
